What all share (type): cell-based
Series [1] relates to LPS-induced B murine splenic lymphocytes. Kind of series: LPS-induced B-cell proliferation, immunosuppressive assay (CCK-8). The conditions noted are these: Mus musculus, Splenic lymphocyte; LPS-induced murine splenic B lymphocytes in vitro, n = 3. On the procedure: (§1) Female BALB/c mice (6–8 weeks old, 20 ± 2 g) were purchased from the Department of Laboratory Animal Science (Hainan Medicinal University, China). The mice were sacrificed by cervical dislocation, and their spleens were collected in complete RPMI 1640 medium, which was minced with surgical scissors in a germ-free condition. The suspension was then filtered through a sterile sieve mesh to obtain the single cell suspension. After centrifugation (1000 rpm at 4 °C for 5 min), the resulting cells were treated with erythrocytes lysis buffer, followed by washing twice with cold phosphate-buffered saline (PBS). Then, the cells were adjusted to the concentration of 5 × 10^6 cells/mL and resuspended in RPMI 1640 medium supplemented with 10% heat-inactivated fetal bovine serum (FBS).
(§2) Compounds 1–8 were evaluated for immunosuppressive activity against the proliferation of concanavalin A (ConA)-induced T and lipopolysaccharide (LPS)-induced B murine splenic lymphocyte in vitro using a CCK-8 method according to previously reported methods. Cyclosporine A was used as a positive control.

Series [2] can be described thus: Cell viability (cytotoxicity) CCK-8 assay on murine splenocytes. The conditions noted are these: female, BALB/c, mouse, murine splenocytes (spleen lymphocytes), CCK-8 method, mean of n = 3. On the procedure:
as §1
Cell viability of compounds 1–8 were measured using the tetrazolium salt-based CCK-8 assay according to a previously described protocol with some modifications. Spleen lymphocytes were seeded into 96-well plates at a density of 2 × 10^6 cells/mL onto 96-well plates containing 100 μL of RPMI1640 complete medium (triplicate wells). Then, the cells were treated with 100 μL of various concentrations (3 μg/mL, 6 μg/mL, 12 μg/mL, 25 μg/mL, 50 μg/mL) of isolated compounds or cyclosporine (CsA) at 37 °C with a 5% CO2 incubator for 44 h. […] The optical density was measured at 450 nm on a microplate reader.
In general terms: Tetrazolium assays rely on reduction of a dye to a coloured formazan, in cell work by metabolically active cells.

For series [3], the system named is ConA-induced T murine splenic lymphocytes. Kind of series: ConA-induced T-cell proliferation, immunosuppressive assay (CCK-8). The conditions noted are these: Mus musculus, Splenic lymphocyte; ConA-induced murine splenic T lymphocytes in vitro, n = 3. On the procedure:
as §1, §2

One may read the IC50 as the concentration that gives 50% inhibition. A low value points to higher potency. Regarding `COC(=O)c1cc(OC)cc2oc3c(c(=O)c12)COC(C)(O)C3` (stereo not drawn) [Compound 5, Diaporchromone A], the values for the IC50 in series [1] and in series [3] were 117 µM and 34 µM, respectively. Further, 47 µM corresponded to half-maximal inhibition in series [2] (IC50 at 44 h).

For the origin of these results see publication PMC8235223, “Four New Chromones from the Endophytic Fungus Phomopsis asparagi DHS-48 Isolated from the Chinese Mangrove Plant Rhizophora mangle” (Marine Drugs, 2021).
